# Patent publication US20260007715A1, “WOUND CARE DEVICE” (priority 2019, published 2026)
# Entries after “also recorded” stand apart in the source; their conditions may differ. Where no end group is shown, it is not given here.
# Legend:
# Horse blood = assay: Blood coagulation on hydrogel samples with different peptides, whole horse blood test (Experiment 3); assay type: cell-based; settings: citrated horse blood recalcified, 60 min at 37° C., washed three times with PBS, duplicate
# Experimental: Hydrogels were functionalized with 4 different types of antimicrobial peptides (AMPs). The AMPs used were PGLa, LL-37, Temporin B and RRP9W4. As control hydrogels without any attached AMPs were used.
# Fresh citrated Horse blood was purchased from Håtunalab AB, Sweden and used to show how if presence of AMPs can induce clotting. In an Eppendorf tube, 1 ml of blood with 0.1 ml of 250 Mm calcium chloride (to reverse the citrate anticoagulant) was added and mixed.
# Samples were placed in 24 well plate and conditioned by adding 1 ml PBS to the hydrogels. After 15 minutes the samples were transferred to the Eppendorf tubes containing the blood. The tubes were then placed on shaker and incubated for 60 min at 37° C.
# As blank controls, 1 ml of blood was added to an Eppendorf tube without any hydrogels and treated with the same conditions. […] Samples were run in duplicate.
# plasmatic coagulation = settings: literature, Int. J. Mol. Sci. 2019, 20, 5426; cited from earlier work
Substance,Observations (clot on hydrogel) (Horse blood),effect on plasmatic coagulation (plasmatic coagulation)
"RRPRPRPRPWWWW-NH2 [RRP9W4, PRELP derived antimicrobial peptide]",large visible clot; also recorded: surprising clotting effect; also recorded: Big clot with firm attachment onto the surface,
"LL-37: human cathelicidin derived LL-37 peptide (LLGDFFRKSKEKIGKEFKRIVQRIKDFLRNLVPRTES; Antibacterial peptide LL-37; UniProt P49913 134-170, looked up)",no clot formation; also recorded: did not form a strong clot; also recorded: No visible clot was observed,not to affect plasmatic coagulation
